Measured values published in the supplement of paper PMC10307832.

How the values were obtained:
Test in all cases: relative viability (nuclei count vs DMSO), 5 days (fraction); higher = more cells survive
[1] = compound: C1CSC2=C(C(=O)N1)SC3=C2C=C(C=C3)O [kb NB 142-70] + CS(=O)(=O)N1CCN(Cc2cc3nc(-c4cccc5[nH]ncc45)nc(N4CCOCC4)c3s2)CC1 [Pictilisib] (partner 1 µM)
How it was run: (§1)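 The day after seeding in 1536-well plates, lung cancer cell lines were treated by pin tool with a single drug, or with a fixed anchor-drug dose together with five library-drug doses (not always all listed) in √10 steps. After 5 days, a combined fix-and-stain solution (final 0.05% Triton X-100, 1% formaldehyde, 1 ug/ml Hoechst) was added. Nuclei counted on 4× images gave relative viability as treated counts over vehicle counts, reported as the median of duplicate plates.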

[2] = compound: C1CSC2=C(C(=O)N1)SC3=C2C=C(C=C3)O [kb NB 142-70] + N=C(N)NC(=N)NCCc1ccccc1 [Phenformin] (partner 250 µM)
How it was run: as §1

[3] = compound: C1CSC2=C(C(=O)N1)SC3=C2C=C(C=C3)O [kb NB 142-70] + CC1(C)CCC(c2ccc(Cl)cc2)=C(CN2CCN(c3ccc(C(=O)NS(=O)(=O)c4ccc(N[C@H](CCN5CCOCC5)CSc5ccccc5)c(S(=O)(=O)C(F)(F)F)c4)cc3)CC2)C1 [Navitoclax] (partner 0.5 µM)
How it was run: as §1

[4] = compound: NCC(=O)Nc1ccc(-n2nc(C(F)(F)F)cc2-c2ccc3c(ccc4ccccc43)c2)cc1 + Cc1nc(NC(=O)N2CCC[C@H]2C(N)=O)sc1-c1ccnc(C(C)(C)C(F)(F)F)c1 [Alpelisib] (partner 2 µM)
How it was run: as §1

[5] = compound: NCC(=O)Nc1ccc(-n2nc(C(F)(F)F)cc2-c2ccc3c(ccc4ccccc43)c2)cc1 + CCNC(=O)c1noc(-c2cc(C(C)C)c(O)cc2O)c1-c1ccc(CN2CCOCC2)cc1 [Luminespib] (partner 0.01 µM)
How it was run: as §1

Cell Line | relative viability ([1]; first compound 0.1 µM) | relative viability ([1]; first compound 1 µM) | relative viability ([1]; first compound 3.162 µM) | relative viability ([2]; first compound 0.1 µM) | relative viability ([2]; first compound 1 µM) | relative viability ([2]; first compound 3.162 µM) | relative viability ([3]; first compound 0.1 µM) | relative viability ([3]; first compound 1 µM) | relative viability ([3]; first compound 3.162 µM) | relative viability ([4]; first compound 0.02 µM) | relative viability ([4]; first compound 0.06325 µM) | relative viability ([4]; first compound 0.2 µM) | relative viability ([4]; first compound 0.6325 µM) | relative viability ([4]; first compound 2 µM) | relative viability ([5]; first compound 0.02 µM) | relative viability ([5]; first compound 0.06325 µM) | relative viability ([5]; first compound 0.2 µM) | relative viability ([5]; first compound 0.6325 µM) | relative viability ([5]; first compound 2 µM)
HCC-78 | 0.213 | 0.216 | 0.181 | 0.72 | 0.673 | 0.651 | 0.752 | 0.742 | 0.652 | 0.361 | 0.422 | 0.376 | 0.306 | 0.397 | – | – | – | – | –
HCC-366 | 0.13 | 0.127 | 0.092 | 0.637 | 0.588 | 0.604 | 1.03 | 1.13 | 0.823 | 0.32 | 0.432 | 0.489 | 0.435 | 0.322 | – | – | – | – | –
HCC-827 | 0.832 | 1.13 | 0.781 | 0.415 | 0.387 | 0.339 | 1.04 | 1.02 | 1.02 | 1.02 | 1.08 | 0.957 | 0.944 | 1.02 | 0.679 | 0.852 | 0.59 | 0.731 | 0.684
HOP-62 | 0.736 | 0.606 | 0.73 | 0.666 | 0.663 | 0.534 | 0.994 | 1.11 | 0.968 | 1.09 | 0.995 | 0.922 | 0.975 | 0.859 | 0.887 | 0.911 | 0.862 | 0.9 | 0.951
IA-LM | 0.412 | 0.529 | 0.51 | – | – | – | 0.807 | 0.843 | 0.651 | 0.776 | 0.715 | 0.937 | 0.784 | 0.782 | – | – | – | – | –
LC-2-ad | 0.508 | 0.545 | 0.311 | 0.618 | 0.536 | 0.458 | 0.537 | 0.473 | 0.262 | 1.07 | 0.947 | 0.945 | 0.883 | 0.959 | 1.01 | 1.05 | 1.12 | 1.11 | 1.14
LCLC-97TM1 | 0.216 | 0.232 | 0.236 | 0.407 | 0.462 | 0.416 | 0.457 | 0.29 | 0.307 | 0.206 | 0.271 | – | 0.239 | 0.206 | 0.869 | 0.76 | 0.689 | 0.8 | 0.831
LCLC-103H | 0.631 | 0.652 | 0.638 | 0.352 | 0.317 | 0.318 | – | – | – | 0.924 | 0.916 | 1.03 | 0.917 | 0.985 | 0.932 | 0.919 | 1.03 | 0.925 | 0.895
LK-2 | 0.483 | 0.42 | 0.183 | 0.5 | 0.403 | 0.318 | 0.879 | 0.723 | 0.464 | 1.04 | 1.04 | 0.979 | 1.14 | 0.969 | 0.173 | 0.195 | 0.217 | 0.173 | 0.208
LOU-NH91 | 0.526 | 0.505 | 0.41 | 0.615 | 0.741 | 0.632 | 0.753 | 0.632 | 0.438 | 0.789 | 0.788 | 0.702 | 0.775 | 0.799 | 0.334 | 0.38 | 0.314 | 0.339 | 0.352
NCI-H358 | 0.35 | 0.3 | 0.189 | 0.279 | 0.187 | 0.0752 | – | – | – | 0.82 | 0.881 | 0.931 | 0.821 | 0.939 | 0.316 | 0.54 | 0.37 | 0.323 | 0.259
NCI-H522 | – | – | – | 0.633 | 0.561 | 0.522 | – | – | – | – | – | – | – | – | 0.97 | 1.05 | 1.24 | 1.19 | 1.37
NCI-H650 | 1.05 | 0.94 | 0.756 | 0.462 | 0.465 | 0.429 | – | – | – | 0.882 | 1.24 | 1.3 | 1.13 | 1.37 | 0.725 | 0.878 | 0.867 | 0.734 | 0.973
NCI-H661 | 0.496 | 0.343 | 0.351 | 0.286 | 0.263 | 0.247 | – | – | – | 0.82 | 0.626 | 0.693 | 0.758 | 0.94 | 0.932 | 0.907 | 0.899 | 0.925 | 0.906
NCI-H1299 | 0.802 | 0.889 | 0.32 | – | – | – | 1.07 | 1.13 | 1.1 | 1.05 | 1.11 | 1.09 | 1.08 | 1.03 | – | – | – | – | –
NCI-H1563 | 0.654 | 0.674 | 0.634 | 0.656 | 0.688 | 0.624 | – | – | – | 0.969 | 0.837 | 0.962 | 0.928 | 1.05 | 0.557 | 0.523 | 0.588 | 0.526 | 0.554
NCI-H1623 | – | – | – | 0.599 | 0.617 | 0.591 | – | – | – | – | – | – | – | – | 0.552 | 0.425 | 0.457 | 0.661 | 0.558
NCI-H1650 | 0.577 | 0.539 | 0.613 | 0.457 | 0.525 | 0.324 | 1.25 | 1.24 | 0.89 | – | – | – | – | – | 0.202 | 0.229 | – | 0.166 | 0.199
NCI-H1703 | 0.249 | 0.286 | 0.255 | – | – | – | 1.04 | 1.05 | 0.93 | 0.377 | 0.306 | 0.343 | 0.353 | 0.385 | – | – | – | – | –
NCI-H2342 | – | – | – | 0.615 | 0.619 | 0.502 | – | – | – | – | – | – | – | – | 0.626 | 0.875 | 0.75 | 0.75 | 0.688
SW 900 | – | – | – | 0.495 | 0.521 | 0.193 | – | – | – | – | – | – | – | – | – | 0.187 | 0.188 | 0.209 | 0.169
